Data published in article PMC7816196, “Antitubercular 2-Pyrazolylpyrimidinones: Structure–Activity Relationship and Mode-of-Action Studies” (Journal of Medicinal Chemistry, 2021).
Converted amounts (≈) assume the structure as drawn. Like-named read-outs stand apart in the source and are kept apart here.

Experiments:
Mtb H37Rv = experiment: MIC against Mtb H37Rv, Alamar Blue broth microdilution; assay type: cell-based, Mycobacterium tuberculosis
[1] = Kinetic aqueous solubility at pH 7.4; assay type: physicochemical; conditions: read-out: Solubility
Procedure: 3) In vitro ADME - assays
The kinetic solubility assay was p erfo rmed using a miniaturised shake flask method. 10 mM stock solutions of each of the test compounds were used to prepare calibration standards (10-220 µM) in DMSO. The same 10 mM stock soluti ons were accurately dispensed in duplicat e into 96-well plates and the DMSO dried down (MiVac GeneVac, 90 min, 37 °C). Thereafter, the samples were reconstituted (200 µM) in phosphate buffered saline (pH 7. 4) and shaken (20 hours,25 °C). The solutions were centrifuged, and the supernatant was an alysed by means of HPLC-DAD (Agilent 1200 Rapid Resolution HPLC with a diode array detector). Best fit calibration curves were constructed using the calibration standards, which were used to determine the aqueous samples’ solubility.4
The metabolic stability assay was performed in dup licate in a 96-well micro t itre plate. The test compounds (0.1 µM) were incubated individually in mouse, rat and pooled human liver microsomes (final protei n concentration of 0.4 m g/mL; XenoTech, Lenexa, KS), suspended in 0.1M phosphate buffer (pH 7.4) for predetermined time points, in the presence and abs ence of the cofactor NADPH (1 mM). Reactions were quenched by adding 300 µL of ice cold acetonitrile containing internal standard (carbamazepine, 0.0236 µg/mL). The samples were centrifuged and test in the supernatant were an alysed by means of LC-MS/MS ((Agilent Rapid Resolution HPLC, AB SCIEX 4500 MS). The rel ative loss of parent compound over time w as monitored and plots (concentration vs. time) were prepared per compound to determine the first order rate constant for compound depletion. This was in turn used to calculate h alf-life, in vitro intrinsic clearance and in vivo hepatic extraction ratio. Metabolite search es were not conducted during the met abolic stability assay.5

CHO cell-line = experiment: Cytotoxicity, MTT assay, CHO cells; conditions: read-out: Cytotoxicity (CHO IC50)
H37Rv = experiment: microbe, parasite or virus in culture; assay type: cell-based; conditions: Mycobacterium tuberculosis, 336 h, 7H9 medium, day 14
SAWC1125 = experiment: microbe, parasite or virus in culture; assay type: cell-based; conditions: Mycobacterium tuberculosis, 336 h; typical Beijing; day 14
SAWC2371 = experiment: microbe, parasite or virus in culture; assay type: cell-based; conditions: Mycobacterium tuberculosis, 336 h; Haarlem; day 14
SAWC3200 = experiment: microbe, parasite or virus in culture; assay type: cell-based; conditions: Mycobacterium tuberculosis, 336 h; X1; day 14
SAWC3385 = assay type: cell-based; conditions: Cas 1/Delhi
SAWC4046 = assay type: cell-based; conditions: Haarlem-like
SAWC3388 = assay type: cell-based; conditions: T1, Tuscany, T5/Rus
SAWC3906 = assay type: cell-based; conditions: atypic Beijing
SAWC3933 = assay type: cell-based; conditions: T1
WT H37Rv = experiment: microbe, parasite or virus in culture; assay type: cell-based, M. tuberculosis; conditions: Mycobacterium tuberculosis
mmpL3-TetON = experiment: microbe, parasite or virus in culture; assay type: cell-based, M. tuberculosis; conditions: for MIC / MIC50: Mycobacterium tuberculosis
Rv3247c hypomorph = experiment: MIC against thymidylate kinase hypomorph; assay type: cell-based, Mycobacterium tuberculosis
Excerpt: Based on the structural similarity of the compounds with the published thymidylate kinase inhibitors,[39],[40] we asked whether this compound series can inhibit Mtb thymidylate kinase, which is an essential target encoded by Rv3247c. To investigate this, we tested the activity of the compounds 1, 2, and 12 against the Rv3247c hypomorph.

[2] = system: panel of 21 liability targets; conditions: 10 μM test concentration
in vivo = conditions: male, C57/BL6, mouse
[3] = Mouse pharmacokinetics, i.v. and oral; conditions: for tolerability: mouse, i.v. 2 mg/kg or oral 20 mg/kg
Mtb [4] = experiment: microbe, parasite or virus in culture; assay type: cell-based, Mycobacterium tuberculosis
Mtb [5] = experiment: Checkerboard (2D) MIC assay with Fe2+ in GAST media; assay type: cell-based, Mycobacterium tuberculosis; conditions: GAST medium, 100/200 μM Fe2+
[6] = mouse blood samples from the PK studies
[7] = Mycobacterium tuberculosis, H37RV, antitubercular activity of the initial hits, medium not stated
[8] = Mycobacterium tuberculosis, H37RV, supplement csv, medium not stated
[9] = male, C57/BL6, mouse, whole blood, iv, 2 mg/kg
[10] = male, C57/BL6, mouse, whole blood, po, 20 mg/kg

| Compound | MIC99 (H37Rv) [µM] | MIC99 (SAWC1125) [µM] | MIC99 (SAWC2371) [µM] | MIC99 (SAWC3200) [µM] | MIC99 day 14, SAWC3385 (SAWC3385) [µM] | MIC99 day 14, SAWC4046 (SAWC4046) [µM] | MIC99 day 14, SAWC3388 (SAWC3388) [µM] | MIC99 day 14, SAWC3906 (SAWC3906) [µM] | MIC99 day 14, SAWC3933 (SAWC3933) [µM] | MIC50 (WT H37Rv; experiment: Follow-Up) [µM] | MIC50 (WT H37Rv; experiment: Initial) [µM] | change in MIC on transcriptional silencing of mmpL3 (mmpL3-TetON) | MIC50 (mmpL3-TetON; experiment: Follow-Up) [µM] | MIC (mmpL3-TetON; experiment: Initial) [µM] | MIC50 (mmpL3-TetON; experiment: Initial) [µM] | MIC modulation upon silencing of Rv3247c (Rv3247c hypomorph) | also measured |
| --- | --- | --- | --- | --- | --- | --- | --- | --- | --- | --- | --- | --- | --- | --- | --- | --- | --- |
| 6-(3,5-Dimethyl-1H-pyrazol-1-yl)-4-phenylpyridin-2(1H)-one [Compound 5] | – | – | – | – | – | – | – | – | – | – | – | – | – | – | – | – | MIC (Mtb H37Rv): >50 µM; MIC (Mtb H37Rv; supplement csv, medium not stated): >50 µM; solubility at 20 h ([1]; aqueous (kinetic) solubility at pH 7.4): 185 µM; IC50 (CHO cell-line): > 50 µM |
| Cc1cc(C)n(-c2nc(O)cc(-c3ccccc3)n2)n1 [Compound 1, 2-(3,5-Dimethyl-1H-pyrazol-1-yl)-6-phenylpyrimidin-4(3H)-one] | 1 to 2 (≈ 0.266 to 0.533 µg/mL) | 8 (≈ 2.13 µg/mL) | 0.25 to 0.5 (≈ 0.0666 to 0.133 µg/mL) | 0.25 (≈ 0.0666 µg/mL) | 0.25 to 0.5 | 0.25 to 0.5 | 0.25 to 0.5 | 0.25 (≈ 0.0666 µg/mL) | 2 to 4 | 0.49 (≈ 0.13 µg/mL) | 0.26 (≈ 0.0692 µg/mL) | no significant change | 0.42 (≈ 0.112 µg/mL) | 0.7 (≈ 0.186 µg/mL) | 0.29 (≈ 0.0772 µg/mL) | did not observe any MIC modulation | MIC (Mtb H37Rv; [7]): < 2 µM; MIC (Mtb H37Rv; [8]): 1 µM (≈ 0.266 µg/mL); MIC (WT H37Rv; experiment: Follow-Up): 0.78 µM (≈ 0.208 µg/mL); MIC (mmpL3-TetON; experiment: Follow-Up): 0.57 µM (≈ 0.152 µg/mL); inhibition or activation of the enzyme/receptors [2]: no significant inhibition or activation |
| Cc1ccc(Nc2cc(C)nn2-c2nc(C)cc(O)n2)cc1 [Compound 2, 6-Methyl-2-(3-methyl-5-(p-tolylamino)-1H-pyrazol-1-yl)pyrimidin-4(3H)-one] | – | – | – | – | – | – | – | – | – | – | – | no significant change | – | – | – | did not observe any MIC modulation | MIC (Mtb H37Rv; [7]): < 2 µM |
| Cc1cc(C)n(-c2nc(C(F)(F)F)cc(=O)[nH]2)n1 [Compound 12, 2-(3,5-Dimethyl-1H-pyrazol-1-yl)-6-(trifluoromethyl)pyrimidin-4(3H)-one] | 2 (≈ 0.516 µg/mL) | 8 to 16 (≈ 2.07 to 4.13 µg/mL) | 2 (≈ 0.516 µg/mL) | 1 (≈ 0.258 µg/mL) | 1 (≈ 0.258 µg/mL) | 1 (≈ 0.258 µg/mL) | 2 to 4 | 2 (≈ 0.516 µg/mL) | – | 8.3 (≈ 2.14 µg/mL) | 4.5 (≈ 1.16 µg/mL) | no significant change | 8.9 (≈ 2.3 µg/mL) | 6.2 (≈ 1.6 µg/mL) | 4.8 (≈ 1.24 µg/mL) | did not observe any MIC modulation | loss in activity (Mtb H37Rv; CH3 or CF3 at R1 instead of phenyl): 10–15 fold; solubility at 20 h ([1]; phosphate buffered saline, pH 7.4, aqueous (kinetic) solubility at pH 7.4): ≥ 200 µM; MIC (WT H37Rv; experiment: Initial): 5.4 µM (≈ 1.39 µg/mL); inhibition or activation of the enzyme/receptors [2]: no significant inhibition or activation; half-life at 24 h (in vivo; iv, 2 mg/kg): 3.1 h; half-life at 24 h (in vivo; po, 20 mg/kg): 4 h; AUC(0-inf) at 24 h [3, 9]: 48.8 µM·h; clearance at 24 h [3, 9]: 2.7 mL/min/kg; bioavailability ([3]; male, C57/BL6, mouse, whole blood, oral, 20 mg/kg): ~40%; tolerability [3]: well tolerated |
| CC(=O)Nc1cc(C)nn1-c1nc(-c2ccccc2)cc(=O)[nH]1 [Compound 15, N-(3-Methyl-1-(4-oxo-6-phenyl-1,4-dihydropyrimidin-2-yl)-1H-pyrazol-5-yl)acetamide] | 4 to 8 (≈ 1.24 to 2.47 µg/mL) | 8 to 16 (≈ 2.47 to 4.95 µg/mL) | – | 1 (≈ 0.309 µg/mL) | 2 (≈ 0.619 µg/mL) | – | – | 2 (≈ 0.619 µg/mL) | 8 (≈ 2.47 µg/mL) | – | – | no significant change | – | – | – | – | – |
| Cc1cc(C)n(-c2nc(-c3ccncc3)cc(=O)[nH]2)n1 [Compound 20, 2-(3,5-Dimethyl-1H-pyrazol-1-yl)-6-(pyridin-4-yl)pyrimidin-4(3H)-one] | 4 to 8 (≈ 1.07 to 2.14 µg/mL) | 32 (≈ 8.55 µg/mL) | 2 to 4 (≈ 0.535 to 1.07 µg/mL) | 1 to 2 (≈ 0.267 to 0.535 µg/mL) | 2 to 4 | 2 to 4 | 4 to 8 | 2 (≈ 0.535 µg/mL) | 16 (≈ 4.28 µg/mL) | – | – | – | – | – | – | – | – |
| Cc1cc(Nc2ccccn2)n(-c2nc(C(F)(F)F)cc(=O)[nH]2)n1 [Compound 45, 2-(3-Methyl-5-(pyridin-2-ylamino)-1H-pyrazol-1-yl)-6-(trifluoromethyl)pyrimidin-4(3H)-one] | – | – | – | – | – | – | – | – | – | – | – | – | – | – | – | – | MIC (Mtb H37Rv; Mycobacterium tuberculosis, H37RV, 168 h): ≤ 1 µM; Fold-change of MIC (Mtb [4]; 200 µM Ferric ammonium citrate): 2-4 fold; MIC (Mtb [4]; Mycobacterium tuberculosis, […], supplement: None): 0.39 µM (≈ 0.131 µg/mL); increase in MIC (Mtb [5]): ≥ 32 fold |
| CCNc1cc(C)nn1-c1nc(-c2cccnc2)cc(=O)[nH]1 [Compound 47, 2-(5-(Ethylamino)-3-methyl-1H-pyrazol-1-yl)-6-(pyridin-3-yl)pyrimidin-4(3H)-one] | – | – | – | – | – | – | – | – | – | 3.5 (≈ 1.04 µg/mL) | 2.5 (≈ 0.741 µg/mL) | no significant change | 3.2 (≈ 0.948 µg/mL) | 2.4 (≈ 0.711 µg/mL) | 2.1 (≈ 0.622 µg/mL) | – | MIC (Mtb H37Rv; [8]): 6 µM (≈ 1.78 µg/mL); MIC (mmpL3-TetON; experiment: Follow-Up): 4.4 µM (≈ 1.3 µg/mL); major metabolite [6]: glucuronide; half-life (in vivo; iv, 2 mg/kg): 5.6 h; half-life (in vivo; po, 20 mg/kg): 4.4 h; AUC(0-inf) [3, 9]: 1.52 µM·h; CLint scaled [3, 9]: > 4000 mL/min/kg; Cmax [3, 9]: 2400 nM; Vd [3, 9]: 37.4 L/kg; AUC(0-inf) [3, 10]: 5.22 µM·h; Cmax [3, 10]: 2900 nM; Tmax [3, 10]: 0.5 h; bioavailability [3, 10]: 33%; tolerability [3]: well tolerated |
